Structures can show the parent of a compound that is named as a salt.
Biological target: T1, Sortase family protein (Staphylococcus aureus, UniProt Q9S446)
T1 sequence (Q9S446 whole entry): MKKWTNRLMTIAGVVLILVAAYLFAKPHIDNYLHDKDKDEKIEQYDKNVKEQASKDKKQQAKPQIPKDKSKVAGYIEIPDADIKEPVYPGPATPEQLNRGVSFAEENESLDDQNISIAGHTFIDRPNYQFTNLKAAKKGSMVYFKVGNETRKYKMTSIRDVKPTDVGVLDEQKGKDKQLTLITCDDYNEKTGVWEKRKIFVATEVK
Assay: Inhibition of Staphylococcus aureus sortase A after 1 hr in the presence of fluorescent peptide […]-QALPETGEE-Edans by fluorimetry

O=C(O)c1cc[c]([Hg][OH])cc1 [para-(Hydroxymercury)benzoic acid sodium salt]
IC50: 111 µM
